Legend:
Enterococci faecium = experiment: Naval Dental School antibacterial study of iodoform/gutta percha (FIG. 1); format: cell-based; conditions: facultative anaerobe
Source text: (§1) However, it is not as effective against an oral salivary leakage contamination as determined by the previous leakage and bacterial investigations.
(§2) FIG. 1 is a table illustrating the results from a study at Naval Dental School, Bethesda, Md., the iodoform/gutta percha disclosed in U.S. Pat. No. 5,648,403, issued Jul. 15, 1997.

Actinomyces = experiment: as above; format: cell-based
Source text: as §1, §2

Escherchi coli = experiment: as above; format: cell-based; conditions: tested aerobe
Source text: as §1, §2

Lactobacillus = experiment: as above; format: cell-based
Source text: as §1, §2

Streptococcus sanguis = experiment: as above; format: cell-based; conditions: tested aerobe
Source text: as §1, §2

Streptococcus mutans = experiment: as above; format: cell-based; conditions: tested aerobe
Source text: as §1, §2

Prevotella intermedius = experiment: as above; format: cell-based
Source text: as §1, §2

Staphylococcus aureus = experiment: as above; format: cell-based; conditions: tested aerobe
Source text: as §1, §2

patients = conditions: more than 1,000 patients; cited from earlier work

| SMILES | effectiveness against Enterococci faecium (Enterococci faecium) | effectiveness against Actinomyces (Actinomyces) | effectiveness against Escherchi coli (Escherchi coli) | effectiveness against Lactobacillus (Lactobacillus) | effectiveness against Streptococcus sanguis (Streptococcus sanguis) | effectiveness against Streptococcus mutans (Streptococcus mutans) | effectiveness against Prevotella intermedius (Prevotella intermedius) | effectiveness against Staphylococcus aureus (Staphylococcus aureus) | allergic reactions (patients) |
| --- | --- | --- | --- | --- | --- | --- | --- | --- | --- |
| IC(I)I [Iodoform, Triiodomethane (Iodoform)] | ineffective | ineffective | ineffective | ineffective | ineffective | ineffective | ineffective | ineffective |  |
| CN(C)[C@@H]1C(O)=C(C(N)=O)C(=O)[C@@]2(O)C(O)=C3C(=O)c4c(O)cccc4[C@@](C)(O)[C@H]3C[C@@H]12 [tetracycline] |  |  |  |  |  |  |  |  | no allergic reactions |

— patent US6602516B1, “Antibiotic/medicated gutta percha point” (priority 2000, dated 2003)
